Assay [1] relates to HAP1 MTAP-intact cell line. In words: SDMA in-cell western assay, HAP1 MTAP-intact. Type of assay: cell-based. As to conditions: Homo sapiens, HAP1, SDMA in-cell western, HAP1 MTAP-intact; read-out: MTAP HAP1 intact IC50. The essentials: (§1)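 Readout: in-cell western detection of SDMA. Cells: HAP1 expressing endogenous MTAP and an MTAP-null HAP1 counterpart. Output: IC50.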
Assay [2] relates to HAP1 MTAP-deleted cell line. In words: Viability assay, MTAP-deleted cell line. Type of assay: cell-based. As to conditions: read-out: HAP1 MTAP deleted viability. An excerpt:
Table 1 additionally indicates IC50 values in a viability assay for the MTAP-deleted cell line (column 10), indicating the effect of treatment with compound on cell survival.

The target in assay [3] is T1, PRMT5 (Homo sapiens, UniProt O14744).
T1 construct: purchased Viva (custom protein)
T1 sequence (O14744 whole entry): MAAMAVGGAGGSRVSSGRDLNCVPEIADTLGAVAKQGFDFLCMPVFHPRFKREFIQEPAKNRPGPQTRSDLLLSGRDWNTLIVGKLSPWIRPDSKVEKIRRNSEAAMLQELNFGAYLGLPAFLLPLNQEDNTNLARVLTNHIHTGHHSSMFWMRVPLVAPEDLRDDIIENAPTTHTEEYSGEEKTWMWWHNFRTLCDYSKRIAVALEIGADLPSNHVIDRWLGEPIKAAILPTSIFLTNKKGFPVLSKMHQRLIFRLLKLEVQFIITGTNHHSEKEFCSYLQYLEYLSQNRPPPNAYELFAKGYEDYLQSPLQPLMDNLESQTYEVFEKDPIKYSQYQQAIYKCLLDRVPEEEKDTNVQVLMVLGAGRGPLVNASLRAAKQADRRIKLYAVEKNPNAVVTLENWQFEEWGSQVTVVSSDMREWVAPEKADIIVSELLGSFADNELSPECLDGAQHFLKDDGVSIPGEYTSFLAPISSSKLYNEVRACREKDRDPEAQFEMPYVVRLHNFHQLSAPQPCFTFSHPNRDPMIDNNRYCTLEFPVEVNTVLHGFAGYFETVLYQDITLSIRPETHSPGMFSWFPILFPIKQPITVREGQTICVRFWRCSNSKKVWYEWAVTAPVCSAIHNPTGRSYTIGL
T1 sequence (Q9BQA1 whole entry partner): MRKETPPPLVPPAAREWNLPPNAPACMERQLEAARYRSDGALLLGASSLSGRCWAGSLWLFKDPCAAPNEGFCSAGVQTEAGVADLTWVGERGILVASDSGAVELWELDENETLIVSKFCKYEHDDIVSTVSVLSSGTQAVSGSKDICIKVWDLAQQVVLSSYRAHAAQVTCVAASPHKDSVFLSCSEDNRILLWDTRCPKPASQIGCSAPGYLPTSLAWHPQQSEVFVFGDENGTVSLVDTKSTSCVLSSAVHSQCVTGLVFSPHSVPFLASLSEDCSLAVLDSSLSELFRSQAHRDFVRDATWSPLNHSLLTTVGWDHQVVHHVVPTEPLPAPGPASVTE
In words: PRMT5 biochemical IC50 assay with no cofactor. The note with it: PRMT5, no cofactor. An excerpt:
Table 1 indicates IC50 values (μM) against PRMT5 for exemplary compounds in the presence of SAM as cofactor, with no cofactor, and with MTA as cofactor, respectively (columns 4-6). […] Ki values can be calculated from the IC50 values as described in the Examples section. As detailed in the Examples section, for the assay performed in the presence of SAM, IC50=Ki×1.5 (Ki=IC50/1.5).

In assay [4] the test system is HAP1 MTAP-deleted cell line. Nature of the assay: SDMA in-cell western assay, HAP1 MTAP-deleted. As to conditions: for IC50: Homo sapiens, HAP1, SDMA in-cell western, HAP1 MTAP-deleted; for MTAP intact/deleted ratio: SDMA in-cell western. In kind it is cell-based. The procedure, abridged:
as §1

Assay [5] concerns the target T1, PRMT5. Nature of the assay: PRMT5 biochemical IC50 assay with MTA as cofactor. The note with it: PRMT5, MTA as cofactor; read-out: MTA IC50.
Assay [6] has as its target T1, PRMT5. In words: PRMT5 biochemical IC50 assay with SAM as cofactor. The note with it: PRMT5, SAM as cofactor; read-out: SAM IC50.
Where [7] appears, read: Homo sapiens, HAP1, viability assay, MTAP-deleted cell line.
Where [8] appears, read: read-out: HAP1 MTAP deleted IC50.
Where [9] appears, read: IC50 ratio HAP1 MTAP-intact / HAP1 MTAP-deleted.
Setting [10] is: read-out: No Cofactor/ rel IC50.
Where [11] appears, read: read-out: HAP 1 MTAP deleted IC50.
[12] abbreviates: Homo sapiens, HAP1, viability, HAP1 MTAP-deleted cell line.
Where [13] appears, read: Homo sapiens, HAP1, viability assay, HAP1 MTAP-deleted.

In the case of `C[C@@H]1CC[C@@H](c2ccc3c(c2)CCC3)N(C(=O)C(=O)Nc2cncc(C(N)=O)c2)C1` (racemic) [Compound 277, rac-5-{2-[(2R,5S)-2-(2,3-Dihydro-1H-inden-5-yl)-5-methylpiperidin-1-yl]-2-oxoacetamido}pyridine-3-carboxamide], the IC50 was > 1000 nM in assay [1]; 1000 to 10000 nM in assay [2] (setting [7]); 50 to 500 nM in assay [3] (read-out: No Cofactor/rel IC50); 100 to 1000 nM in assay [4] (setting [8]); < 50 nM in assay [5]; 50 to 500 nM in assay [6]. Further, the MTAP intact/deleted ratio entry in assay [4] (setting [9]) is recorded as “A (an IC50 ratio greater than or equal to 10 fold)”.
With `Cn1nccc1C1CCCCN1C(=O)C(=O)Nc1cncc(C(N)=O)c1` (single isomer, unassigned) [Compound 46], the IC50 in assay [1] is > 1000 nM; in assay [2] (viability assay, MTAP-deleted cell line) it was > 10000 nM; in assay [3] (setting [10]) it was 50 to 500 nM; in assay [4] (setting [11]), 100 to 1000 nM; in assay [5], < 50 nM; in assay [6], 50 to 500 nM. In addition, the “MTAP intact/deleted ratio” value in assay [4] (setting [9]) is “A (an IC50 ratio greater than or equal to 10 fold)”.
Turning to `Cc1cc([C@H]2CC[C@H](C)CN2C(=O)C(=O)Nc2cnc(N)c(C)c2)ccc1O` (single isomer, unassigned) [Compound 551], the IC50 is > 1000 nM in assay [1]; > 10000 nM in assay [2] (Homo sapiens, HAP1, viability IC50, MTAP-deleted cell line); > 500 nM in assay [3] (read-out: No Cofactor/rel IC50); > 1000 nM in assay [4] (setting [11]); > 500 nM in assay [5]; > 500 nM in assay [6]. Besides, in assay [4] (setting [9]), the MTAP intact/deleted ratio entry is given as “C (an IC50 ratio of less than 3 fold)”.
For `CCc1cc(NC(=O)C(=O)N2C[C@@H](C)CC[C@@H]2c2ccc3sc(C45CCN(CC4)C5)nc3c2)cnc1N` [Compound 1298, 2-((2R,5S)-2-(2-(1-azabicyclo[2.2.1]heptan-4-yl)benzo[d]thiazol-5-yl)-5-methylpiperidin-1-yl)-N-(6-amino-5-ethylpyridin-3-yl)-2-oxoacetamide], the IC50 is < 100 nM in assay [1]; < 1000 nM in assay [2] (setting [12]); < 50 nM in assay [3] (setting [10]); < 100 nM in assay [4] (setting [11]); < 50 nM in assay [5]; 50 to 500 nM in assay [6]. The “MTAP intact/deleted ratio” value in assay [4] (setting [9]) was “B (an IC50 ratio greater than or equal to 3 fold but lower than 10 fold)”.
Take `CCc1cc(NC(=O)C(=O)N2C[C@@H](C)CC[C@@H]2c2ccc(N3CCN(C)C[C@@H]3C)nc2)cnc1N` (racemic) [Compound 1099, N-(6-amino-5-ethyl-3-pyridyl)-2-[(2R,5S)-2-[6-[(2S)-2,4-dimethylpiperazin-1-yl]-3-pyridyl]-5-methyl-1-piperidyl]-2-oxo-acetamide]: the IC50 in assay [1] was 100 to 1000 nM; in assay [2] (setting [7]), < 1000 nM; in assay [3] (read-out: No Cofactor/rel IC50) it was < 50 nM; in assay [4] (setting [8]) it was < 100 nM; in assay [5], < 50 nM; in assay [6], 50 to 500 nM. The MTAP intact/deleted ratio result in assay [4] (IC50 ratio HAP1 MTAP-intact vs HAP1 MTAP-deleted) is on record as “A (an IC50 ratio greater than or equal to 10 fold)”.
As to `Cc1cc(NC(=O)C(=O)N2CCCCC2c2cccnc2)cnc1N` (stereo not drawn) [Compound 38, N-(6-Amino-5-methyl-3-pyridyl)-2-oxo-2-[2-(3-pyridyl)-1-piperidyl]acetamide], the IC50 in assay [1] is > 1000 nM; in assay [2] (setting [7]), > 10000 nM; in assay [3] (setting [10]) it was 50 to 500 nM; in assay [4] (setting [11]), > 1000 nM; in assay [5], 50 to 500 nM; in assay [6], 50 to 500 nM. In addition, in assay [4] (setting [9]), the “MTAP intact/deleted ratio” value is “B (an IC50 ratio greater than or equal to 3 fold but lower than 10 fold)”.
On to `Cc1cc(NC(=O)C(=O)N2C[C@@H](C)C(F)(F)C[C@@H]2c2ccc(F)c(F)c2)cnc1N` (single isomer, unassigned) [Compound 705], for which the IC50 was 100 to 1000 nM in assay [1]; < 1000 nM in assay [2] (setting [13]); < 50 nM in assay [3] (read-out: No Cofactor/rel IC50); < 100 nM in assay [4] (setting [8]); < 50 nM in assay [5]; 50 to 500 nM in assay [6]. Besides, the MTAP intact/deleted ratio result in assay [4] (setting [9]) is listed as “B (an IC50 ratio greater than or equal to 3 fold but lower than 10 fold)”.
On to `COc1ncc(NC(=O)C(=O)N2C[C@@H](C)CC[C@@H]2c2ccc(-c3cncs3)cc2)cc1C(N)=O` (single isomer, unassigned) [Compound 842, 2-methoxy-5-(2-(5-methyl-2-(4-(thiazol-5-yl)phenyl)piperidin-1-yl)-2-oxoacetamido)nicotinamide], for which the IC50 was > 1000 nM in assay [1]; > 10000 nM in assay [2] (setting [13]); > 500 nM in assay [3] (read-out: No Cofactor/rel IC50); > 1000 nM in assay [4] (setting [8]); > 500 nM in assay [5]; > 500 nM in assay [6]. Moreover, the MTAP intact/deleted ratio result in assay [4] (setting [9]) is “B (an IC50 ratio greater than or equal to 3 fold but lower than 10 fold)”.
As to `C[C@@H]1CC[C@@H](c2cccc(OC(F)(F)F)c2)N(C(=O)C(=O)Nc2cncc(C(N)=O)c2)C1` (racemic) [Compound 279, rac-5-{2-[(2R,5S)-5-Methyl-2-[3-(trifluoromethoxy)phenyl]piperidin-1-yl]-2-oxoacetamido}pyridine-3-carboxamide], the IC50 was > 1000 nM in assay [1]; 1000 to 10000 nM in assay [2] (setting [7]); 50 to 500 nM in assay [3] (read-out: No Cofactor/rel IC50); 100 to 1000 nM in assay [4] (setting [8]); < 50 nM in assay [5]; 50 to 500 nM in assay [6]. Moreover, in assay [4] (setting [9]), the MTAP intact/deleted ratio result is listed as “A (an IC50 ratio greater than or equal to 10 fold)”.
As for `NC(=O)c1cncc(NC(=O)C(=O)N2C[C@@H]3CC[C@@H](C3)[C@@H]2c2ccccc2)c1` (single isomer, unassigned) [Compound 205], the IC50 in assay [1] is > 1000 nM; in assay [2] (setting [7]) it was > 10000 nM; in assay [3] (read-out: No Cofactor/rel IC50), > 500 nM; in assay [4] (setting [8]), > 1000 nM; in assay [5], 50 to 500 nM; in assay [6] it was 50 to 500 nM. The MTAP intact/deleted ratio entry in assay [4] (setting [9]) is “B (an IC50 ratio greater than or equal to 3 fold but lower than 10 fold)”.
Regarding `C[C@H]1CC[C@H](c2ccc(-c3nccs3)cc2)N(C(=O)C(=O)Nc2cncc(C(N)=O)c2)C1` (single isomer, unassigned) [Compound 772], the IC50 was > 1000 nM in assay [1]; > 10000 nM in assay [2] (setting [13]); > 500 nM in assay [3] (read-out: No Cofactor/rel IC50); > 1000 nM in assay [4] (setting [8]); > 500 nM in assay [5]; > 500 nM in assay [6]. The MTAP intact/deleted ratio entry in assay [4] (setting [9]) was “B (an IC50 ratio greater than or equal to 3 fold but lower than 10 fold)”.
Regarding `CCc1cc(NC(=O)C(=O)N2C[C@@H](C)CC[C@@H]2c2ccc3sc(C4CCCN4C)nc3c2)cnc1N` (stereo partly drawn) [Compound 1282, N-(6-amino-5-ethylpyridin-3-yl)-2-((2R,5S)-5-methyl-2-(2-(1-methylpyrrolidin-2-yl)benzo[d]thiazol-5-yl)piperidin-1-yl)-2-oxoacetamide], the IC50 was 100 to 1000 nM in assay [1]; < 1000 nM in assay [2] (setting [12]); < 50 nM in assay [3] (setting [10]); < 100 nM in assay [4] (setting [11]); < 50 nM in assay [5]; 50 to 500 nM in assay [6]. The “MTAP intact/deleted ratio” value in assay [4] (setting [9]) is “A (an IC50 ratio greater than or equal to 10 fold)”.
Regarding `C[C@@H]1CC[C@@H](c2cccc3[nH]ncc23)N(C(=O)C(=O)Nc2cncc(C(N)=O)c2)C1` (single isomer, unassigned) [Compound 883], the IC50 is > 1000 nM in assay [1]; > 10000 nM in assay [2] (setting [13]); > 500 nM in assay [3] (read-out: No Cofactor/rel IC50); > 1000 nM in assay [4] (setting [8]); > 500 nM in assay [5]; > 500 nM in assay [6]. Besides, the MTAP intact/deleted ratio entry in assay [4] (setting [9]) is “C (an IC50 ratio of less than 3 fold)”.
`[H][C@@]1([C@]2([H])C[C@@]3(C[C@H](O)C3)C2)CC[C@@H](C)CN1C(=O)C(=O)Nc1cnc(N)c(C)c1` (mixture of isomers) [Compound 711]: the IC50 in assay [1] was > 1000 nM; in assay [2] (setting [13]) it was > 10000 nM; in assay [3] (read-out: No Cofactor/rel IC50), > 500 nM; in assay [4] (setting [8]), > 1000 nM; in assay [5] it was 50 to 500 nM; in assay [6], > 500 nM. In addition, in assay [4] (setting [9]), the MTAP intact/deleted ratio result is recorded as “B (an IC50 ratio greater than or equal to 3 fold but lower than 10 fold)”.
Turning to `Cc1cc(NC(=O)C(=O)N2CC[C@@H](C(=O)C(C)C)C[C@H]2c2ccc3c(c2)CCC(=O)N3)cnc1N` (racemic) [Compound 853, N-(6-amino-5-methyl-3-pyridyl)-2-[(2S,4R)-4-(2-methylpropanoyl)-2-(2-oxo-3,4-dihydro-1H-quinolin-6-yl)-1-piperidyl]-2-oxo-acetamide], the IC50 in assay [1] was > 1000 nM; in assay [2] (setting [13]) it was 1000 to 10000 nM; in assay [3] (read-out: No Cofactor/rel IC50), 50 to 500 nM; in assay [4] (setting [8]) it was 100 to 1000 nM; in assay [5] it was 50 to 500 nM; in assay [6], 50 to 500 nM. The MTAP intact/deleted ratio result in assay [4] (setting [9]) is listed as “A (an IC50 ratio greater than or equal to 10 fold)”.

The values above are taken from patent US11999727B2 (Tango Therapeutics, Inc., priority 2020, dated 2024).
